Data on 21 compounds can be found in patent US8785457B2 (Cellzome Limited, priority 2009, dated 2014).

Like-named read-outs stand apart in the source and are kept apart here.

Assay [1] relates to Akt serine-473 phosphorylation. As to the kind of experiment: In vitro Phospho-Akt cellular assay (pAkt S473) in HEK293T/17 cells. It counts as cell-based. The note with it: Homo sapiens, 2 hours. From the text: Activation of mTOR signaling results in phosphorylation of several downstream targets. In cells, mTOR exists in two different protein complexes. The mTOR Complex-1 (mTORC1) phosphorylates and activates S6 Kinase 1 (S6K1) and S6 Kinase 2 (S6K2) (also known as p70S6K) which then phosphorylate S6 Ribosomal Protein (S6RP) (also known as RPS6)3. S6RP is phosphorylated on serine 235, serine 236, serine 240 and serine 244 by both pS6K1 and pS6K2. The mTOR Complex-2 (mTORC2) phosphorylates AKT on serine 473 which activates the AKT signaling pathway.
The assay measures a test compound's inhibition of S6RP serine-240/244 phosphorylation and inhibition of Akt serine-473 phosphorylation in human embryonic kidney derived HEK293T/17 cells (ATCC CRL-11268).
The HEK293T/17 cell line is maintained in DMEM media (Invitrogen catalogue number 41965-039) supplemented with 10% FCS at 37° C. in a 5% CO2 humidified incubator.
Cells are seeded in 96-well plates at 40,000 cells/well (pS6RP S240/244 assay) or 80,000 cells/well (pAkt S473 assay) in 90 μl growth media (DMEM, 2% FCS). Plates are incubated for 1 hour in a humidified incubator to allow the cells to adhere. Cells are treated with 8 concentrations of test compounds or DMSO alone for controls (final DMSO concentration 0.1%) and incubated at 37° C. for 2 hours. Then 20 μl of 5× concentrated lysis buffer (750 mM NaCl, 100 mM Tris pH7.4, 5 mM ADTA, 5 mM EGTA, 5% Triton X-100) is added, plates are sealed and incubated for 15 minutes at 4° C. with gentle shaking. After cell lysis, 25 μl cell lysate is transferred to a MesoScale plate coated with an antibody to pS6RP Ser240/244 (MesoScale Discovery K150DGD-3) or an antibody to pAkt Ser 473 (MesoScale Discovery K151DGD-3). Plates have been blocked before by incubation with 150 μl MesoScale Discovery Blocking Solution-A for 1 hour at room temperature followed by washing with 150 μl 1× Tris wash buffer per well. After the transfer of the cell lysate to the MSD plate, the pS6RP (or pAkt) protein is captured on the coated antibody by incubation at room temperature for 1 hour with gentle shaking. After the capture step the plate is washed three times with 150 μl of 1× Tris wash buffer per well. Then 25 μl detection antibody conjugated with a Sulfo-Tag is added and incubated for 1 hour at room temperature with gentle shaking. Subsequently the antibody solution is removed and the plate is washed 3 times with 150 μl×Tris wash buffer per well and 150 μl Read buffer is added. The plates are analysed on a MSD 2400 Plate Reader (MesoScale Discovery). Data analysis is performed using nonlinear regression for a sigmoidal dose-response with a variable slope.

Another assay concerns the target T1, PI3K delta (PI3 Kd) (Homo sapiens, UniProt O00329).
T1 construct: endogenous in cells; host or cells: Jurkat, clone E6-1 (ATCC TIB-152) cell lysate
As to the kind of experiment: kinobeads assay, PI3K delta. The note with it: kinobeads assay, read-out: Inhibition values (IC50) PI3Kd. It is filed as binding. Summed up: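 Competitive binding in Jurkat cell lysate (5 mg/ml total protein): test compounds at various concentrations competed with beads bearing immobilized phenylmorpholin-chromen ligand. Bead-bound kinases were eluted and quantified by antibody dot blot with infrared detection; IC50 values came from dose-response curves.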

T1 sequence (O00329 whole entry): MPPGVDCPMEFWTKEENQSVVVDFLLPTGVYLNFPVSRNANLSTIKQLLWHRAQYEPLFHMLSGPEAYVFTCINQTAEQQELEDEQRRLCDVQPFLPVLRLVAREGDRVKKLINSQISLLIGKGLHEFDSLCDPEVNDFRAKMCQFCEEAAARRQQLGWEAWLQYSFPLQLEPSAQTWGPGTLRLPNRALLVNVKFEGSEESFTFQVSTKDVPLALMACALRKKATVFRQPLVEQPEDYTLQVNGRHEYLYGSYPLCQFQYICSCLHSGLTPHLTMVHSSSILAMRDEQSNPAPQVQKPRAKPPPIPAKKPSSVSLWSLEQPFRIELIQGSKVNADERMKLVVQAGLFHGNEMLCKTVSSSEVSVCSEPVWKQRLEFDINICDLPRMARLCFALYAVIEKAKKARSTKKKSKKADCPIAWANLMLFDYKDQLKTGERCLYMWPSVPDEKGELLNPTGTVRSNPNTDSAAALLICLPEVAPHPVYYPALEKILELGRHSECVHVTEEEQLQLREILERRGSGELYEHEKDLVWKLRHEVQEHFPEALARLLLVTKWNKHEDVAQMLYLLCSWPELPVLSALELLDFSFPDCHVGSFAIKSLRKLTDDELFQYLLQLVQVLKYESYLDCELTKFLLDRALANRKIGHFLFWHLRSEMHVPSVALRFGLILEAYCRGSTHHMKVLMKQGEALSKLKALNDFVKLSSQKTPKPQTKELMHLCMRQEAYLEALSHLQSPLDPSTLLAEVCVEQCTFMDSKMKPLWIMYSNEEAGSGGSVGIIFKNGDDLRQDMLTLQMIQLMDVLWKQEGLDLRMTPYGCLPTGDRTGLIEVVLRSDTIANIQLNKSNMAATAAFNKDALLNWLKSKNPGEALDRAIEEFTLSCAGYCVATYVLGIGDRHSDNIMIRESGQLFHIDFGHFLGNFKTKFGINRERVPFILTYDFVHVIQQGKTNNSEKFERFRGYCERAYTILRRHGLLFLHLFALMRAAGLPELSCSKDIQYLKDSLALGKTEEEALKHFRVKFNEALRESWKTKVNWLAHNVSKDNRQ
T1 sequence (P27986 whole entry partner): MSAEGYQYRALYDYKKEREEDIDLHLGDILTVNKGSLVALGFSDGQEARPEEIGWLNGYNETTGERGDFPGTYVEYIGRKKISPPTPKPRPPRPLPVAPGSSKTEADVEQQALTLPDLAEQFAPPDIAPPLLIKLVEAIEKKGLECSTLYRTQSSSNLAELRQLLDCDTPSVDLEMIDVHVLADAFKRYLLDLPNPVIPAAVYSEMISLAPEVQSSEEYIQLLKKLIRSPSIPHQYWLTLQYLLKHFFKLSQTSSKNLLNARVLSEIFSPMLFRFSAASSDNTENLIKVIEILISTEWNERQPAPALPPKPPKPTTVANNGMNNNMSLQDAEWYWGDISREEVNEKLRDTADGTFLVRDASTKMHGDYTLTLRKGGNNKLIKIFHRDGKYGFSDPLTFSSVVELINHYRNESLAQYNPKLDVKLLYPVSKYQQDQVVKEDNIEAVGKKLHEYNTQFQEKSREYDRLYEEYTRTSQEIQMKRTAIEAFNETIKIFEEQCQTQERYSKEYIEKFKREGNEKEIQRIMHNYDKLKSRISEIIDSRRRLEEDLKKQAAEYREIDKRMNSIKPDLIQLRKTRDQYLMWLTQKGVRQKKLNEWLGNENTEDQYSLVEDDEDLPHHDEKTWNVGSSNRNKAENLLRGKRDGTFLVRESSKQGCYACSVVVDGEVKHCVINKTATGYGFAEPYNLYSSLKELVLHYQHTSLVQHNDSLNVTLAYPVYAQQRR

For the compound `CCNC(=O)Nc1ccc(-c2nc3c(c(N4CCOC[C@@H]4C)n2)CCN(C(=O)C(C)(C)C)C3)cc1` [Example 58, (S)-1-ethyl-3-(4-(4-(3-methylmorpholino)-7-pivaloyl-5,6,7,8-tetrahydropyrido[3,4-d]pyrimidin-2-yl)phenyl)urea], the IC50 – broadly, the concentration at which inhibition is half-maximal – in assay [1] was 0.017 µM; at PI3K delta (PI3 Kd) (Table 4), > 10 µM; on PI3K delta (PI3 Kd) (Table 6), > 10 µM.

On to `C[C@H]1COCCN1c1nc(-c2ccc(NC(=O)NC3CC3)cc2)nc2c1CCN(C(=O)C1CC1)C2` [Example 60, (S)-1-(4-(7-(cyclopropanecarbonyl)-4-(3-methylmorpholino)-5,6,7,8-tetrahydropyrido[3,4-d]pyrimidin-2-yl)phenyl)-3-cyclopropylurea], for which the values for the IC50 (in assay [1]; on PI3K delta (PI3 Kd) (Table 4); on PI3K delta (PI3 Kd) (Table 6)) were 0.021 µM, > 10 µM and > 10 µM, respectively.

For `CC(C)C(=O)N1CCc2c(nc(-c3ccc(NC(=O)NC4CC4)cc3)nc2N2CCOC[C@@H]2C)C1` [Example 61, (S)-1-cyclopropyl-3-(4-(7-isobutyryl-4-(3-methylmorpholino)-5,6,7,8-tetrahydropyrido[3,4-d]pyrimidin-2-yl)phenyl)urea], the IC50 was 0.02 µM in assay [1], > 10 µM on PI3K delta (PI3 Kd) (Table 4) and > 10 µM on PI3K delta (PI3 Kd) (Table 6).

Turning to `C[C@H]1COCCN1c1nc(-c2ccc(NC(=O)NC3CC3)cc2)nc2c1CCN(C(=O)C(C)(C)C)C2` [Example 64, (S)-1-cyclopropyl-3-(4-(4-(3-methylmorpholino)-7-pivaloyl-5,6,7,8-tetrahydropyrido[3,4-d]pyrimidin-2-yl)phenyl)urea], the IC50 in assay [1] is 0.017 µM; on PI3K delta (PI3 Kd) (Table 6), > 10 µM.

On to `CCNC(=O)Nc1ccc(-c2nc3c(c(N4CCOC[C@@H]4C)n2)CN(CC(C)C)C3)cc1` [Example 66, (S)-1-ethyl-3-(4-(6-isobutyl-4-(3-methylmorpholino)-6,7-dihydro-5H-pyrrolo[3,4-d]pyrimidin-2-yl)phenyl)urea], for which the concentration for half-maximal inhibition (IC50) is 0.054 µM in assay [1] and > 10 µM at PI3K delta (PI3 Kd) (Table 6).

In the case of `CCNC(=O)Nc1ccc(-c2nc3c(c(N4CCOC[C@@H]4C)n2)CCN(C(=O)OCC)C3)cc1` [Example 77, (S)-ethyl 2-(4-(3-ethylureido)phenyl)-4-(3-methylmorpholino)-5,6-dihydropyrido[3,4-d]pyrimidine-7(8H)-carboxylate], the half-inhibitory concentration (IC50) was 0.028 µM in assay [1] and > 10 µM at PI3K delta (PI3 Kd) (Table 6).

`CCOC(=O)N1CCc2c(nc(-c3ccc(NC(=O)NC4CC4)cc3)nc2N2CCOC[C@@H]2C)C1` [Example 78, (S)-ethyl 2-(4-(3-cyclopropylureido)phenyl)-4-(3-methylmorpholino)-5,6-dihydropyrido[3,4-d]pyrimidine-7(8H)-carboxylate]: the IC50 in assay [1] is 0.021 µM; on PI3K delta (PI3 Kd) (Table 6), > 10 µM.

Turning to `C[C@H]1COCCN1c1nc(-c2ccc(NC(=O)Nc3cccc(O)n3)cc2)nc2c1CN(C)C2` [Example 80, (S)-1-(6-hydroxypyridin-2-yl)-3-(4-(6-methyl-4-(3-methylmorpholino)-6,7-dihydro-5H-pyrrolo[3,4-d]pyrimidin-2-yl)phenyl)urea], the IC50 was 0.061 µM in assay [1] and > 10 µM on PI3K delta (PI3 Kd) (Table 6).

For `CCNC(=O)Nc1ccc(-c2nc3c(c(N4CCOC[C@@H]4C)n2)CCN(C(=O)OC)C3)cc1` [Example 81, (S)-methyl 2-(4-(3-ethylureido)phenyl)-4-(3-methylmorpholino)-5,6-dihydropyrido[3,4-d]pyrimidine-7(8H)-carboxylate], the results for the IC50 (in assay [1]; at PI3K delta (PI3 Kd) (Table 6)) were 0.022 µM and > 10 µM, respectively.

For the compound `COC(=O)N1CCc2c(nc(-c3ccc(NC(=O)NC4CC4)cc3)nc2N2CCOC[C@@H]2C)C1` [Example 83, (S)-methyl 2-(4-(3-cyclopropylureido)phenyl)-4-(3-methylmorpholino)-5,6-dihydropyrido[3,4-d]pyrimidine-7(8H)-carboxylate], the half-inhibitory concentration (IC50) is 0.07 µM in assay [1] and > 10 µM on PI3K delta (PI3 Kd) (Table 6).

Take `CCNC(=O)Nc1ccc(-c2nc3c(c(N4CCOC[C@@H]4C)n2)CN(C)C3)cc1F` [Example 85, (S)-1-ethyl-3-(2-fluoro-4-(6-methyl-4-(3-methylmorpholino)-6,7-dihydro-5H-pyrrolo[3,4-d]pyrimidin-2-yl)phenyl)urea]: the IC50 in assay [1] is 0.531 µM; at PI3K delta (PI3 Kd) (Table 6) it was > 10 µM.

With `COC(=O)N1Cc2nc(-c3ccc(NC(=O)NC4CC4)cc3)nc(N3CCOC[C@@H]3C)c2C1` [Example 86, (S)-methyl 2-(4-(3-cyclopropylureido)phenyl)-4-(3-methylmorpholino)-5H-pyrrolo[3,4-d]pyrimidine-6(7H)-carboxylate], the half-inhibitory concentration (IC50) was 0.043 µM in assay [1] and > 10 µM at PI3K delta (PI3 Kd) (Table 6).

For `CCNC(=O)Nc1ccc(-c2nc3c(c(N4CCOC[C@@H]4C)n2)CCN(C(=O)NCC)C3)cc1` [Example 87, (S)—N-ethyl-2-(4-(3-ethylureido)phenyl)-4-(3-methylmorpholino)-5,6-dihydropyrido[3,4-d]pyrimidine-7(8H)-carboxamide], the half-inhibitory concentration (IC50) in assay [1] was 0.091 µM; at PI3K delta (PI3 Kd) (Table 6) it was > 10 µM.

With `CCOC(=O)N1Cc2nc(-c3ccc(NC(=O)NC4CC4)c(F)c3)nc(N3CCOC[C@@H]3C)c2C1` [Example 105, (S)-ethyl 2-(4-(3-cyclopropylureido)-3-fluorophenyl)-4-(3-methylmorpholino)-5H-pyrrolo[3,4-d]pyrimidine-6(7H)-carboxylate], the IC50 at PI3K delta (PI3 Kd) (Table 6) is > 10 µM.

`CCNC(=O)Nc1ncc(-c2nc3c(c(N4CCOC[C@@H]4C)n2)CCN(C)C3)s1` [Example 106, (S)-1-ethyl-3-(5-(7-methyl-4-(3-methylmorpholino)-5,6,7,8-tetrahydropyrido[3,4-d]pyrimidin-2-yl)thiazol-2-yl)urea]: the concentration for half-maximal inhibition (IC50) on PI3K delta (PI3 Kd) (Table 6) is > 10 µM.

Regarding `CCNC(=O)Nc1ccc(-c2nc3c(c(N4CCOC[C@@H]4C)n2)CN(C(=O)OCC)CC3)cc1` [Example 107, (S)-ethyl 2-(4-(3-ethylureido)phenyl)-4-(3-methylmorpholino)-7,8-dihydropyrido[4,3-d]pyrimidine-6(5H)-carboxylate], at PI3K delta (PI3 Kd) (Table 6), the IC50 is > 10 µM.

With `CCNC(=O)Nc1cc(F)c(-c2nc3c(c(N4CCOC[C@@H]4C)n2)CCN(C)C3)cc1F` [Example 108, (S)-1-(2,5-difluoro-4-(7-methyl-4-(3-methylmorpholino)-5,6,7,8-tetrahydropyrido[3,4-d]pyrimidin-2-yl)phenyl)-3-ethylurea], the half-maximal inhibitory concentration (IC50) at PI3K delta (PI3 Kd) (Table 6) is > 10 µM.

Consider `CCOC(=O)N1Cc2nc(-c3ccc(NC(=O)NCCF)cc3)nc(N3CCOC[C@@H]3C)c2C1` [Example 120, (S)-ethyl 2-(4-(3-(2-fluoroethyl)ureido)phenyl)-4-(3-methylmorpholino)-5H-pyrrolo[3,4-d]pyrimidine-6(7H)-carboxylate], for which the half-maximal inhibitory concentration (IC50) at PI3K delta (PI3 Kd) (Table 6) was > 10 µM.

On to `CCOC(=O)N1Cc2nc(-c3ccc(NC(=O)Nc4ccncc4)cc3)nc(N3CCOC[C@@H]3C)c2C1` [Example 121, (S)-ethyl 4-(3-methylmorpholino)-2-(4-(3-(pyridin-4-yl)ureido)phenyl)-5H-pyrrolo[3,4-d]pyrimidine-6(7H)-carboxylate], for which the IC50 at PI3K delta (PI3 Kd) (Table 6) is > 10 µM.

As for `CCNC(=O)Nc1ccc(-c2nc3c(c(N4CCOC[C@@H]4C)n2)CN(C2CCN(C(=O)OC)CC2)C3)cc1F` [Example 122, (S)-methyl 4-(2-(4-(3-ethylureido)-3-fluorophenyl)-4-(3-methylmorpholino)-5H-pyrrolo[3,4-d]pyrimidin-6(7H)-yl)piperidine-1-carboxylate], the concentration for half-maximal inhibition (IC50) at PI3K delta (PI3 Kd) (Table 6) is > 10 µM.

Take `C[C@H]1COCCN1c1nc(-c2ccc(NC(=O)NC3CC3)cc2)nc2c1CN(C(=O)C1CCOCC1)C2` [Example 129, (S)-1-cyclopropyl-3-(4-(4-(3-methylmorpholino)-6-(tetrahydro-2H-pyran-4-carbonyl)-6,7-dihydro-5H-pyrrolo[3,4-d]pyrimidin-2-yl)phenyl)urea]: at PI3K delta (PI3 Kd) (Table 6), the 50% inhibitory concentration (IC50) is > 10 µM.
